Laboratory results published in ChEMBL document CHEMBL3785034, “New isosteroidal alkaloids with tracheal relaxant effect from the bulbs of Fritillaria pallidiflora Schrenk” (Bioorg Med Chem Lett, 2016).

Legend:
Trachea [1] = assay: Inhibition of KCl-induced contraction in Sprague-Dawley rat trachea assessed as maximal diastolic rate at 10^-7 mol/L (reference value: 7 +/- 0.8%); type: functional; set-up: scale not given: the % may be the effect or the level left
Trachea [2] = assay: Inhibition of Ach-induced contraction in Sprague-Dawley rat trachea assessed as maximal diastolic rate at 10^-7 mol/L (reference value: 14.2 +/- 2.3%); type: functional; set-up: scale not given: the % may be the effect or the level left
Trachea [3] = assay: Inhibition of KCl-induced contraction in Sprague-Dawley rat trachea assessed as tracheal tension at 10^-6 mol/L (reference value: 2.16 to 2.59 g); type: functional
Trachea [4] = assay: Inhibition of Ach-induced contraction in Sprague-Dawley rat trachea assessed as maximal diastolic rate at 10^-6 mol/L (reference value: 15.9 +/- 3%); type: functional; set-up: scale not given: the % may be the effect or the level left
Trachea [5] = assay: Inhibition of Ach-induced contraction in Sprague-Dawley rat trachea assessed as tracheal tension at 10^-8 mol/L (reference value: 0.63 to 0.98 g); type: functional
Trachea [6] = assay: Inhibition of Ach-induced contraction in Sprague-Dawley rat trachea assessed as tracheal tension at 10^-4 mol/L (reference value: 0.63 to 0.98 g); type: functional
Trachea [7] = assay: Inhibition of Ach-induced contraction in Sprague-Dawley rat trachea assessed as tracheal tension at 10^-5 mol/L (reference value: 0.63 to 0.98 g); type: functional
Trachea [8] = assay: Inhibition of KCl-induced contraction in Sprague-Dawley rat trachea assessed as maximal diastolic rate at 10^-5 mol/L (reference value: 6 +/- 0.6%); type: functional; set-up: scale not given: the % may be the effect or the level left
Trachea [9] = assay: Inhibition of KCl-induced contraction in Sprague-Dawley rat trachea assessed as maximal diastolic rate at 10^-4 mol/L (reference value: 6.6 +/- 0.3%); type: functional; set-up: scale not given: the % may be the effect or the level left
Trachea [10] = assay: Inhibition of KCl-induced contraction in Sprague-Dawley rat trachea assessed as tracheal tension at 10^-7 mol/L (reference value: 2.16 to 2.59 g); type: functional
Trachea [11] = assay: Inhibition of KCl-induced contraction in Sprague-Dawley rat trachea assessed as tracheal tension at 10^-5 mol/L (reference value: 2.16 to 2.59 g); type: functional
Trachea [12] = assay: Inhibition of Ach-induced contraction in Sprague-Dawley rat trachea assessed as maximal diastolic rate at 10^-9 mol/L (reference value: 12.7 +/- 2.8%); type: functional; set-up: scale not given: the % may be the effect or the level left
Trachea [13] = assay: Inhibition of KCl-induced contraction in Sprague-Dawley rat trachea assessed as maximal diastolic rate at 10^-9 mol/L (reference value: 5.9 +/- 1.8%); type: functional; set-up: scale not given: the % may be the effect or the level left
Trachea [14] = assay: Inhibition of KCl-induced contraction in Sprague-Dawley rat trachea assessed as maximal diastolic rate at 10^-6 mol/L (reference value: 6 +/- 1.2%); type: functional; set-up: scale not given: the % may be the effect or the level left
Trachea [15] = assay: Inhibition of Ach-induced contraction in Sprague-Dawley rat trachea assessed as tracheal tension at 10^-6 mol/L (reference value: 0.63 to 0.98 g); type: functional
Trachea [16] = assay: Inhibition of KCl-induced contraction in Sprague-Dawley rat trachea assessed as tracheal tension at 10^-8 mol/L (reference value: 2.16 to 2.59 g); type: functional
Trachea [17] = assay: Inhibition of Ach-induced contraction in Sprague-Dawley rat trachea assessed as maximal diastolic rate at 10^-5 mol/L (reference value: 15.9 +/- 2.6%); type: functional; set-up: scale not given: the % may be the effect or the level left
Trachea [18] = assay: Inhibition of KCl-induced contraction in Sprague-Dawley rat trachea assessed as tracheal tension at 10^-4 mol/L (reference value: 2.16 to 2.59 g); type: functional
Trachea [19] = assay: Inhibition of KCl-induced contraction in Sprague-Dawley rat trachea assessed as tracheal tension at 10^-9 mol/L (reference value: 2.16 to 2.59 g); type: functional
Trachea [20] = assay: Inhibition of KCl-induced contraction in Sprague-Dawley rat trachea assessed as maximal diastolic rate at 10^-8 mol/L (reference value: 7 +/- 0.3%); type: functional; set-up: scale not given: the % may be the effect or the level left
Trachea [21] = assay: Inhibition of Ach-induced contraction in Sprague-Dawley rat trachea assessed as maximal diastolic rate at 10^-8 mol/L (reference value: 14 +/- 1.8%); type: functional; set-up: scale not given: the % may be the effect or the level left
Trachea [22] = assay: Inhibition of Ach-induced contraction in Sprague-Dawley rat trachea assessed as tracheal tension at 10^-9 mol/L (reference value: 0.63 to 0.98g); type: functional
Trachea [23] = assay: Inhibition of Ach-induced contraction in Sprague-Dawley rat trachea assessed as maximal diastolic rate at 10^-4 mol/L (reference value: 15 +/- 4.2%); type: functional; set-up: scale not given: the % may be the effect or the level left
Trachea [24] = assay: Inhibition of Ach-induced contraction in Sprague-Dawley rat trachea assessed as tracheal tension at 10^-7 mol/L (reference value: 0.63 to 0.98 g); type: functional
Trachea [25] = assay: Inhibition of Ach-induced contraction in Sprague-Dawley rat trachea; type: functional, tissue-based
Trachea [26] = assay: Inhibition of Ach-induced contraction in Sprague-Dawley rat trachea at 1 to 100 umol/L; type: functional, tissue-based; settings: read-out: pA2 (converted)

Row | SMILES | Activity (Trachea [1]) [%] | Activity (Trachea [2]) [%] | Activity (Trachea [3]) [g] | Activity (Trachea [4]) [%] | Activity (Trachea [5]) [g] | Activity (Trachea [6]) [g] | Activity (Trachea [7]) [g] | Activity (Trachea [8]) [%] | Activity (Trachea [9]) [%] | Activity (Trachea [10]) [g] | Activity (Trachea [11]) [g] | Activity (Trachea [12]) [%] | Activity (Trachea [13]) [%] | Activity (Trachea [14]) [%] | Activity (Trachea [15]) [g] | Activity (Trachea [16]) [g] | Activity (Trachea [17]) [%] | Activity (Trachea [18]) [g] | Activity (Trachea [19]) [g] | Activity (Trachea [20]) [%] | other results
1 | C[C@@H]1CN[C@H]2[C@@H](C)[C@@]3(CC[C@]4(O)[C@@H]5CC(=O)[C@H]6C[C@@H](O)CC[C@]6(C)[C@H]5C[C@]45O[C@]53C)O[C@@H]2C1 | 5.6 | 23 | 2.39 | 27.1 | 0.55 | 0.53 | 0.5 | 3.3 | 2.1 | 2.36 | 2.42 | 15.2 | 6.3 | 4.5 | 0.52 | 2.37 | 30.2 | 2.45 | 2.34 | 5.1 | Activity (Trachea [21]): 18.3%; Activity (Trachea [22]): 0.56 g; Activity (Trachea [23]): 23.4%; Activity (Trachea [24]): 0.53 g
2 | COC(=O)C1=C(C)NC(C)=C(C(=O)OC)C1c1ccccc1[N+](=O)[O-] [NIFEDIPINE] | – | – | – | – | – | – | – | – | – | – | – | – | – | – | – | – | – | – | – | – | EC50 (Trachea [25]): 6.5 µM; Kb (Trachea [26]): 6030 nM
3 | Cn1c(=O)c2[nH]cnc2n(C)c1=O [AMINOPHYLLINE] | – | – | – | – | – | – | – | – | – | – | – | – | – | – | – | – | – | – | – | – | EC50 (Trachea [25]): 0.05 µM; Kb (Trachea [26]): 47.9 nM
4 | C[C@H]1CC[C@H]2[C@@](C)(O)[C@@H]3CC[C@@H]4[C@@H](C[C@H]5[C@H]4CC(=O)[C@H]4C[C@@H](O)CC[C@@]45C)[C@@H]3C[N+]2([O-])C1 (stereo partly specified) | 6.7 | 27 | 2.32 | 25.8 | 0.6 | 0.55 | 0.58 | 6.1 | 5.7 | 2.3 | 2.31 | 15.6 | 6.4 | 5.5 | 0.57 | 2.29 | 21.6 | 2.31 | 2.3 | 6.9 | Activity (Trachea [21]): 17.2%; Activity (Trachea [22]): 0.61 g; Activity (Trachea [23]): 31.3%; Activity (Trachea [24]): 0.56 g
5 | C[C@H]1CC[C@H]2N(C1)C[C@H]1[C@@H]3C[C@H]4[C@@H](CC(=O)[C@H]5C[C@@H](O[C@@H]6O[C@H](CO)[C@@H](O)[C@H](O)[C@H]6O)CC[C@@]54C)[C@@H]3CC[C@@H]1[C@@]2(C)O | 6.4 | 14.9 | 2.34 | 15 | 0.84 | 0.84 | 0.83 | 6.4 | 8.3 | 2.36 | 2.37 | 12.2 | 7.8 | 7.5 | 0.84 | 2.37 | 15.9 | 2.33 | 2.33 | 6.2 | EC50 (Trachea [25]): 3 µM; Activity (Trachea [21]): 13.8%; Activity (Trachea [22]): 0.85 g; Activity (Trachea [23]): 15.6%; Kb (Trachea [26]): 2630 nM; Activity (Trachea [24]): 0.83 g
6 | C[C@H]1CC[C@@H]2N(C1)C[C@H]1[C@@H]3C[C@H]4[C@@H](CC(=O)[C@H]5C[C@@H](O[C@@H]6O[C@H](CO)[C@@H](O)[C@H](O)[C@H]6O)CC[C@@]54C)[C@@H]3CC[C@H]1[C@]2(C)O | 5.2 | 17.7 | 2.45 | 20.5 | 0.78 | -0.13 | 0.71 | 4.5 | 3 | 2.45 | 2.47 | 12.6 | 7.5 | 5.3 | 0.74 | 2.45 | 22.7 | 2.52 | 2.4 | 5.2 | Activity (Trachea [21]): 15.2%; Activity (Trachea [22]): 0.81 g; Activity (Trachea [23]): 129.3%; Activity (Trachea [24]): 0.76 g
7 | C[C@H]1CC[C@@H]2N(C1)C[C@H]1[C@@H]3C[C@H]4[C@@H](CC(=O)[C@H]5C[C@@H](O)CC[C@@]54C)[C@@H]3CC[C@H]1[C@]2(C)O [IMPERIALINE] | 6 | 35.3 | 2.43 | 40.4 | 0.55 | 0.48 | 0.49 | 6.8 | 7.2 | 2.44 | 2.42 | 14.5 | 5.7 | 6.4 | 0.5 | 2.43 | 45.7 | 2.41 | 2.44 | 6.3 | EC50 (Trachea [25]): 4.4 µM; Activity (Trachea [21]): 28.1%; Activity (Trachea [22]): 0.58 g; Activity (Trachea [23]): 50.7%; Kb (Trachea [26]): 3.89 nM; Activity (Trachea [24]): 0.52 g
8 | C[C@H]1CC[C@H]2[C@@H](C)[C@H]3CC[C@@H]4[C@@H](C[C@H]5[C@H]4CC(=O)[C@H]4C[C@@H](O)CC[C@@]45C)[C@@H]3CN2C1 | 3.9 | 17.9 | 2.2 | 19.8 | 0.56 | 0.54 | 0.55 | 3.2 | 2.9 | 2.2 | 2.2 | 12.2 | 5.7 | 3.2 | 0.55 | 2.18 | 19.5 | 2.21 | 2.16 | 5.3 | Activity (Trachea [21]): 16.3%; Activity (Trachea [22]): 0.59 g; Activity (Trachea [23]): 20.9%; Activity (Trachea [24]): 0.56 g
9 | Cc1c([C@H](C)[C@@H]2NC[C@@H](C)C[C@H]2O)ccc2c1C[C@H]1[C@H]2CC(=O)[C@H]2C[C@@H](O)CC[C@@]21C | 6.1 | 18.9 | 2.2 | 21.3 | 0.53 | -0.11 | 0.48 | 8 | 13.9 | 2.22 | 2.18 | 13.6 | 5.7 | 7.2 | 0.5 | 2.25 | 24.5 | 2.04 | 2.23 | 4.8 | Activity (Trachea [21]): 16%; Activity (Trachea [22]): 0.54 g; Activity (Trachea [23]): 115.2%; Activity (Trachea [24]): 0.52 g
